Tests used:
[1] = target: T1, MR (Rattus norvegicus, UniProt P22199); assay: MR transactivation in HEK-293 cells; type: cell-based
T1 construct: expressed in transfected cells
T1 sequence (P22199 1-981): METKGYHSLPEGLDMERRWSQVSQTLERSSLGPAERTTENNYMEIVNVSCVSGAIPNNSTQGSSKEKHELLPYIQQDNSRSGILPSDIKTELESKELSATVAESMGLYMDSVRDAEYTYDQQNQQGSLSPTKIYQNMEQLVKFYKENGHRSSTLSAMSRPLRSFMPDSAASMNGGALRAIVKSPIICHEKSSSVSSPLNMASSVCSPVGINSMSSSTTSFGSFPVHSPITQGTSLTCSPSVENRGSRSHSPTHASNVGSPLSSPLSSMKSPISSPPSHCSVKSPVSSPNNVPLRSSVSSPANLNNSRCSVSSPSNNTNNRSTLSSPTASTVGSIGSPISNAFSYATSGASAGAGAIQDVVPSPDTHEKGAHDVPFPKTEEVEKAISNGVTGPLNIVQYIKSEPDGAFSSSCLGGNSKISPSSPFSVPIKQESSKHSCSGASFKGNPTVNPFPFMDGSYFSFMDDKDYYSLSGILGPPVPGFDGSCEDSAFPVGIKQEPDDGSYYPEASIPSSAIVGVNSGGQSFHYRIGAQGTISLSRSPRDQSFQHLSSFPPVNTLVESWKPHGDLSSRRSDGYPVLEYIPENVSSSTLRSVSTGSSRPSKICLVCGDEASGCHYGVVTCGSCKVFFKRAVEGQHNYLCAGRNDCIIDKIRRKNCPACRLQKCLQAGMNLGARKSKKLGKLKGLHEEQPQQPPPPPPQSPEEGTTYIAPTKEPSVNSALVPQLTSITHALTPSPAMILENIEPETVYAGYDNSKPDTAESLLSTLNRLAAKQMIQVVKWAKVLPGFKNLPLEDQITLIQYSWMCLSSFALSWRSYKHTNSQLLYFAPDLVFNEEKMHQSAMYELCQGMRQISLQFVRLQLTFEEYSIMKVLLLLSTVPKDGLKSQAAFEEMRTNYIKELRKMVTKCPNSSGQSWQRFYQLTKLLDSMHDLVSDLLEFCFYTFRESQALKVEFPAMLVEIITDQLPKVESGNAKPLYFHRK
Experimental: Rat GR, MR, PR, ER-α and ER-β were individually cloned into a pCR3.1 vector backbone. Sequencing was performed to verify the absence of any mutations. HEK-293 cells were plated at 90,000 cells per well of a 24 well plate in Dulbecco's Minimal Essential Media supplemented with 5% charcoal-stripped FBS. […] Luciferase assays were performed 48 h after transfection. Transcriptional activation values are represented as firefly luciferase normalized to renilla luciferase.

[2] = tested on: MDA-MB-231 triple negative breast cancer cells; assay: SRB cell viability, MDA-MB-231 cells infected with AR adenovirus; type: cell-based
Experimental: The SRB assay was used to determine cell number during cytotoxocity experiments. The following protocol was used: • 1. Cells were detached with 0.25% trypsin. • 2. Experimental cultures were cultured in 96-well microtiter plates (200 μL growth medium per well; 1,000-200,000 cells per well). • 3. Cultures were fixed with 50 μL 50% TCA (4° C.). (see cell fixation protocol for details). • 4. Fixed cells were stained with 50 μL 0.4% (wt/vol) SRB in 1% acetic acid for 10 minutes. • 5. SRB was removed and the cultures were quickly* rinsed 5 times with 1% acetic acid to remove unbound dye.** • 6. Cultures were air-dried overnight until there was no visible moisture. • 7. The cellular protein-bound SRB was dissolved with 200 μL unbuffered Tris base (10 mM, pH 10.5) for 30 minutes on a rocking platform shaker. • 8. Absorbance was read at 540 nm. * quickly performing rinsing process was to prevent desorption of protein-bound SRB ** completely removed residual wash solution by sharply flicking plates over sink.
The following protocol was used for fixing cells: • a. 50 μL of 50% TCA (4° C.) was gently layered on the top of growth medium in each well to make a final TCA concentration of 10%. • b. Cultures were incubated at 4° C. for 1 hour. • c. Cultures were washed 5 times with tap water to remove TCA, growth medium, low-molecular-weight metabolites, and serum protein. • d. Plates were air-dried until there was no visible moisture.
Cells were treated in charcoal stripped FBS (FIGS. 4A, 4C, 4E, 4G, 4I, 4K, 4M and 4O) or full serum (FIGS. 4B, 4D, 4F, 4H, 4J, 4L, 4N and 4P) for 3 days, fixed and stained with […] (SRB) to measure cell viability. Anti-proliferative IC50 values were calculated in breast cancer cells and compared to transactivation values, i.e., EC50 (agonists) and IC50 (antagonists) values, generated in HEK-293 cells.

[3] = tested on: HCI-9 PDX; assay: HCI-9 patient-derived xenograft in NSG mice; type: in vivo; conditions: Formula IX 10 mpk, enzalutamide 30 mpk p.o.
Experimental: All animal protocols were approved by The University of Tennessee Health Science Center (UTHSC) Institutional Animal Care and Use Research Committee. Xenograft experiments were performed as previously published (Narayanan et al. (2014) PLoS One 9, e103202). Briefly, 3 million MCF-7 cells were suspended in 0.05 ml MEM+10% FBS and 0.05 ml Matrigel/nude mouse and were injected subcutaneously. Once the tumor size reached 100-200 mm^3, the animals were randomized and treated orally with the indicated drugs formulated in DMSO:PEG-300 (15:85). HCI-7, HCI-9, and HCI-13 PDXs were gifts kindly donated by Dr. Alana Welm (Huntsman Cancer Institute, Salt Lake City, Utah). HCI PDX tumor fragments (1 mm^3) were surgically implanted under the mammary fat pad in female NOD SCID Gamma (NSG) mice. Tumor volume was measured twice weekly for MCF-7 xenograft and once or twice weekly for HCI PDXs. At the end of the study, animals were sacrificed and tumors were excised, weighed, and stored for various analyses.
To determine if the same effect is observed in an AR-positive, but ER-negative breast cancer, HCI-9 tumor fragments were implanted under the mammary fat pad of NSG mice.

Structure (SMILES)	MR-mediated transactivation, agonist mode ([1]; all tested concentrations)	aldosterone-induced MR-mediated transactivation, antagonist mode ([1]; co-incubation)	growth inhibitory effects in the presence of bicalutamide ([2]; AR-positive cells, 10 μM bicalutamide)	cell growth ([2]; cells with AR, 3 days, SRB)	tumor growth trajectory [3]
C[C@](O)(COc1ccc(C#N)cc1)C(=O)Nc1ccc(C#N)c(Cl)c1 [Formula VIII, (S)—N-(3-chloro-4-cyanophenyl)-3-(4-cyanophenoxy)-2-hydroxy-2-methylpropanamide]	did not induce	failed to alter	–	–	–
C[C@](O)(COc1ccc(C#N)cc1)C(=O)Nc1ccc(C#N)c(C(F)(F)F)c1 [Formula IX, (S)—N-(4-Cyano-3-(trifluoromethyl)phenyl)-3-(4-cyanophenoxy)-2-hydroxy-2-methylpropanamide]	–	–	weakened growth inhibitory effects	inhibited	Neither Formula IX nor enzalutamide altered the growth trajectory
